Drawing on PubChem BioAssay (NCI), this text covers TGI and GI50 for 14 compounds.

Molecules are shown by their SMILES. “And” between values parts separate entries of the source, which are not always exact repeats. Equal values may be shown once.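 Growth conditions: 96-well plates. Treatment: test compound, 48 hours, 5 concentrations. Analysis: linear interpolation between bracketing concentrations; unreached endpoints set to highest concentration. GI50 is the concentration that inhibits growth by half. At the TGI there is no net growth.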

Holding throughout (test): growth of human tumour cells (NCI), 48 h
Experiment [1] deals with CCRF-CEM leukemia.
The test system of experiment [2] is IGROV1 ovarian.
Experiment [3] has as its system OVCAR-8 ovarian.
The test system of experiment [4] is RXF 393 renal.
Experiment [5] relates to SF-539 CNS.
The subject of experiment [6] is SNB-19 CNS.
The test system of experiment [7] is UACC-62 melanoma.
Experiment [8] concerns RPMI-8226 leukemia.
The test system of experiment [9] is MDA-MB-435.
In experiment [10] the test system is NCI/ADR-RES ovarian.

In the case of `Fc1cccc2c1cc1ccc3cccc4ccc2c1c34`, the TGI in [1], in [2], in [3], in [4], in experiment [5] and in experiment [6] was above 100 µM in each case. Also, the TGI in [7] is above 100 µM.
As for `C[n+]1ccc(-c2c3nc(c(-c4cc[n+](C)cc4)c4ccc([n-]4)c(-c4cc[n+](C)cc4)c4nc(c(-c5cc[n+](C)cc5)c5ccc2[n-]5)C=C4)C=C3)cc1.[I-].[Zn+2]`, the GI50 in experiment [1] is 14.1 µM; in [2] it was 25.4 µM; in experiment [3] it was 23.6 µM; in experiment [8], 32.1 µM; in [4] it was 3.03 µM; in experiment [5], 16.2 µM. For the same compound, the GI50 was 19.4 µM in experiment [6] and 27.5 µM in [7]. The TGI is 44.5 µM in [1]; 57.8 µM in [2]; 61.1 µM in experiment [3]; above 100 µM in experiment [8]; 7.91 µM in [4]; 39.9 µM in [5]. For the same compound, the TGI in experiment [6] is 45.5 µM; in experiment [7] it was above 100 µM.
With `OC1C2CCC1C1C3C=CC(C3)C21` (centres undefined), the TGI in experiment [1], in experiment [2], in experiment [3], in experiment [8], in experiment [4] and in experiment [6] was above 100 µM throughout. The same compound returned a TGI in experiment [7] above 100 µM.
With `c1ccc2c(c1)[nH]c1c2nc2ncccn21`, the TGI in experiment [1], in experiment [2], in experiment [3], in [4], in [5] and in [6] was above 100 µM each time. This compound also had a TGI in experiment [7] above 100 µM.
For `CC1OC(OC2C(CO)OC(O[C@H]3CC[C@@]4(C)C(=CC[C@H]5[C@@H]6C[C@@H]7O[C@]8(CC[C@@H](C)CN8)[C@@H](C)[C@@H]7[C@@]6(C)CC[C@@H]54)C3)C(O)C2O)C(O)C(O)C1O` (some centres undefined), the TGI in [1], in experiment [2], in experiment [3], in [8], in experiment [4] and in experiment [5] was above 100 µM each time. Further, the TGI in [6] and in [7] was above 100 µM throughout.
Consider `O=C(NCC(O)CNC(=O)C(F)(F)F)C(F)(F)F`, for which the TGI in [1], in [2], in experiment [3], in [8], in [4] and in experiment [5] was above 100 µM in each case. The TGI in [6] and in experiment [7] was above 100 µM in each case.
`CC(C)(C)OC(=O)NC(CO)c1cccc(OCc2ccccc2)c1` (centres undefined): the TGI in experiment [1], in experiment [2], in experiment [3], in [8], in experiment [4] and in experiment [5] was above 100 µM each time. Besides, the TGI in experiment [6] and in [7] was above 100 µM throughout.
`N#C/C(=C/Sc1ccccc1)C(=O)O`: the TGI is above 100 µM in experiment [1]; 37.2 µM in experiment [2]; 36.9 µM in [3]; above 100 µM in experiment [8]; 58.2 µM in [4]; 35.2 µM in [5]. In addition, the TGI in experiment [6] and in experiment [7] was above 100 µM throughout.
On to `COc1ccc2nc3ccccc3c(NCCCN(C)CCCl)c2c1`, for which the TGI in experiment [1] came to 1.58 µM; in experiment [2], 2.21 µM; in [9], 1.54 µM; in [3], 2.02 µM; in experiment [8], 1.12 µM; in experiment [4], 1.45 µM. Moreover, the TGI in experiment [5] was 1.29 µM; in experiment [6], 2.06 µM; in [7], 2.05 µM.
As to `O=C1c2ccccc2-c2c1c1c(O)cccc1n2-c1ccccc1`, the GI50 in experiment [1] was 45.3 µM; in experiment [2], above 100 µM; in experiment [9] it was above 100 µM; in experiment [10] it was above 100 µM; in experiment [3] it was above 100 µM; in experiment [8], 0.0318 µM. Also, the GI50 in experiment [6] and in [7] was above 100 µM throughout. Also, the TGI in experiment [1] is above 100 µM; in [2], above 100 µM; in experiment [9], above 100 µM; in experiment [10] it was above 100 µM; in [3], above 100 µM; in experiment [8], 93.8 µM. Moreover, the TGI in [6] and in [7] was above 100 µM each time.
Regarding `O=c1oc(=O)c2oc3ccccc3oc1=2`, the TGI in [1], in experiment [2], in [3], in experiment [4], in experiment [5] and in [6] was above 100 µM each time. This compound also gave a TGI in experiment [7] above 100 µM.
Regarding `CN(C)CCOC(c1ccccc1)c1ccccc1`, the TGI in [1] is above 100 µM; in experiment [2], 46.3 µM and > 100 µM; in [9], 44.1 µM and > 100 µM; in [10] it was 48.9 µM and > 100 µM; in [3] it was 22.7 µM and > 100 µM; in [8], above 100 µM. The same compound displayed a TGI in experiment [7] of 48.4 µM. In addition, the GI50 in [2] was 29.3 µM; in experiment [9], 24.6 µM; in experiment [10], 33.1 µM; in [3], 14.8 µM; in experiment [7], 32.7 µM.
On to `NCCN1C(=O)C2C3c4ccccc4C(c4ccccc43)C2C1=O` (centres undefined), for which the TGI in [1], in experiment [2], in [3], in experiment [8], in experiment [5] and in experiment [6] was above 100 µM each time. Moreover, in experiment [7], the TGI is above 100 µM.
Regarding `Cc1ccc(-c2nc(N3CCCNCC3)c3oc(-c4ccccc4)nc3n2)cc1`, the GI50 in experiment [1] was 1.31 µM; in experiment [2], 1.67 µM; in [9], 1.77 µM; in experiment [4] it was 1.75 µM; in experiment [5], 1.79 µM; in [6], 1.82 µM. In addition, the GI50 in experiment [7] is 1.71 µM. The TGI in experiment [1] was 3.13 µM; in experiment [2], 3.24 µM; in experiment [9], 3.19 µM; in [4] it was 3.29 µM; in experiment [5], 3.26 µM; in experiment [6], 3.45 µM. In addition, the TGI in [7] stood at 3.3 µM.
